In ChEMBL document CHEMBL3758163, “Extended structure-activity study of thienopyrimidine-based EGFR inhibitors with evaluation of drug-like properties” (Eur J Med Chem, 2016):

Columns and labels:
[1] = target: Aurora kinase B (Homo sapiens) (UniProt Q96GD4); assay: Inhibition of AURKB (unknown origin) at 500 nM
[2] = target: Macrophage colony-stimulating factor 1 receptor (Homo sapiens) (UniProt P07333); assay: Inhibition of CSF1R (unknown origin) at 500 nM
[3] = target: T1, Ephrin type-A receptor 1 (Homo sapiens) (UniProt P21709); assay: Inhibition of EPHA1 (unknown origin) at 500 nM
T1 sequence (whole entry): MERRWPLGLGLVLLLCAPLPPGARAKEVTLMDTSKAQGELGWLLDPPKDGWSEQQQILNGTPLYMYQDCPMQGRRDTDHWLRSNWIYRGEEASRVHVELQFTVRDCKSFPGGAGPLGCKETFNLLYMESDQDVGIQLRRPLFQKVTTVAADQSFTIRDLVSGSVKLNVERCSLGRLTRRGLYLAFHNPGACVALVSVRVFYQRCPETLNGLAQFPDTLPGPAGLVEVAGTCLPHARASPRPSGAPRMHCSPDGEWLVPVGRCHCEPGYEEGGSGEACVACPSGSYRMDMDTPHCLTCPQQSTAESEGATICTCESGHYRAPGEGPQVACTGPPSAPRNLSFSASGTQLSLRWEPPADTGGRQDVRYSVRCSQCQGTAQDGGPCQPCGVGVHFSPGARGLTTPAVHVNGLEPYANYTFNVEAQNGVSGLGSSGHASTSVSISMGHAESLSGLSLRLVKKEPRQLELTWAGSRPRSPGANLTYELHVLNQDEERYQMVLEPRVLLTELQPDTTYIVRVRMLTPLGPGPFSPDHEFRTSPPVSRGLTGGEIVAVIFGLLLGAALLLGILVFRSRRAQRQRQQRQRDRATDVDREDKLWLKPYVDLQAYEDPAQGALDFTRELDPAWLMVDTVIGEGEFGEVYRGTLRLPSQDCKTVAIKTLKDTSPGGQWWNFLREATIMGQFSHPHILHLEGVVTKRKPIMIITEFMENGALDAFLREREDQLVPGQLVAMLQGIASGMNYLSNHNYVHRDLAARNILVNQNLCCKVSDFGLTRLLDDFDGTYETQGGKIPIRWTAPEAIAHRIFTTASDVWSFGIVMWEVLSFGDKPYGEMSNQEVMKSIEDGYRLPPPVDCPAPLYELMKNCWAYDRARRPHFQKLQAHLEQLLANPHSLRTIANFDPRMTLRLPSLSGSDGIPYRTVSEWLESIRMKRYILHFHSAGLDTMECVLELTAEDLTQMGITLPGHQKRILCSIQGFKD

[4] = target: Receptor tyrosine-protein kinase erbB-2 (Homo sapiens) (UniProt P04626); assay: Inhibition of ERBB2 (unknown origin) at 500 nM
[5] = target: Protein kinase C theta type (Homo sapiens) (UniProt Q04759); assay: Inhibition of PRKCQ (unknown origin) at 500 nM
[6] = target: Serine/threonine-protein kinase PLK1 (Homo sapiens) (UniProt P53350); assay: Inhibition of PLK1 (unknown origin) at 500 nM
[7] = target: Tyrosine-protein kinase Lyn (Homo sapiens) (UniProt P07948); assay: Inhibition of LYN B (unknown origin) at 500 nM
[8] = target: Tyrosine-protein kinase HCK (Homo sapiens) (UniProt P08631); assay: Inhibition of HCK (unknown origin) at 500 nM
[9] = target: Vascular endothelial growth factor receptor 2 (Homo sapiens) (UniProt P35968); assay: Inhibition of KDR (unknown origin) at 500 nM
[10] = target: T2, Testis-specific serine/threonine-protein kinase 2 (Homo sapiens) (UniProt Q96PF2); assay: Inhibition of STK22B (unknown origin) at 500 nM
T2 sequence (whole entry): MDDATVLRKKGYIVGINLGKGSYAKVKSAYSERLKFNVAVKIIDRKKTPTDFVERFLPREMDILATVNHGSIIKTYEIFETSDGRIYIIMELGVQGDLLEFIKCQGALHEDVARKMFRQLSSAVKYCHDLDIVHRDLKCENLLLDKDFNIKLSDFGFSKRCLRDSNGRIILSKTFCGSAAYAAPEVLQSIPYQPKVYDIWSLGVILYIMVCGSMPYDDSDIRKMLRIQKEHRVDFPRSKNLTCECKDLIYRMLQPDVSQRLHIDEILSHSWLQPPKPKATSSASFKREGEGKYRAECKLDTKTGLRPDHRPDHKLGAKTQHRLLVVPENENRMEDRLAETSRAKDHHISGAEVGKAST

[11] = target: Mitogen-activated protein kinase 8 (Homo sapiens) (UniProt P45983); assay: Inhibition of MAPK8 (unknown origin) at 500 nM
[12] = target: Tyrosine-protein kinase CSK (Homo sapiens) (UniProt P41240); assay: Inhibition of CSK (unknown origin) at 500 nM
[13] = target: Proto-oncogene tyrosine-protein kinase receptor Ret (Homo sapiens) (UniProt P07949); assay: Inhibition of RET (unknown origin) at 500 nM
[14] = target: Vascular endothelial growth factor receptor 3 (Homo sapiens) (UniProt P35916); assay: Inhibition of FLT4 (unknown origin) at 500 nM
[15] = target: Mitogen-activated protein kinase 1 (Homo sapiens) (UniProt P28482); assay: Inhibition of MAPK1 (unknown origin) at 500 nM
[16] = target: Tyrosine-protein kinase JAK2 (Homo sapiens) (UniProt O60674); assay: Inhibition of JAK2 (unknown origin) at 500 nM
[17] = target: Focal adhesion kinase 1 (Homo sapiens) (UniProt Q05397); assay: Inhibition of PTK2 (unknown origin) at 500 nM
[18] = target: Fibroblast growth factor receptor 1 (Homo sapiens) (UniProt P11362); assay: Inhibition of FGFR1 (unknown origin) at 500 nM
[19] = Half-life in human liver microsomes at 3 uM by LC-MS/MS analysis; format: ADME
[20] = target: Tyrosine-protein kinase Fer (Homo sapiens) (UniProt P16591); assay: Inhibition of FER (unknown origin) at 500 nM
[21] = target: Tyrosine-protein kinase ABL1 (Homo sapiens) (UniProt P00519); assay: Inhibition of ABL1 (unknown origin) at 500 nM
[22] = target: Angiopoietin-1 receptor (Homo sapiens) (UniProt Q02763); assay: Inhibition of TEK (unknown origin) at 500 nM

Chain of Tyrosine-protein kinase Fer (Homo sapiens) (P16591 whole entry, looked up): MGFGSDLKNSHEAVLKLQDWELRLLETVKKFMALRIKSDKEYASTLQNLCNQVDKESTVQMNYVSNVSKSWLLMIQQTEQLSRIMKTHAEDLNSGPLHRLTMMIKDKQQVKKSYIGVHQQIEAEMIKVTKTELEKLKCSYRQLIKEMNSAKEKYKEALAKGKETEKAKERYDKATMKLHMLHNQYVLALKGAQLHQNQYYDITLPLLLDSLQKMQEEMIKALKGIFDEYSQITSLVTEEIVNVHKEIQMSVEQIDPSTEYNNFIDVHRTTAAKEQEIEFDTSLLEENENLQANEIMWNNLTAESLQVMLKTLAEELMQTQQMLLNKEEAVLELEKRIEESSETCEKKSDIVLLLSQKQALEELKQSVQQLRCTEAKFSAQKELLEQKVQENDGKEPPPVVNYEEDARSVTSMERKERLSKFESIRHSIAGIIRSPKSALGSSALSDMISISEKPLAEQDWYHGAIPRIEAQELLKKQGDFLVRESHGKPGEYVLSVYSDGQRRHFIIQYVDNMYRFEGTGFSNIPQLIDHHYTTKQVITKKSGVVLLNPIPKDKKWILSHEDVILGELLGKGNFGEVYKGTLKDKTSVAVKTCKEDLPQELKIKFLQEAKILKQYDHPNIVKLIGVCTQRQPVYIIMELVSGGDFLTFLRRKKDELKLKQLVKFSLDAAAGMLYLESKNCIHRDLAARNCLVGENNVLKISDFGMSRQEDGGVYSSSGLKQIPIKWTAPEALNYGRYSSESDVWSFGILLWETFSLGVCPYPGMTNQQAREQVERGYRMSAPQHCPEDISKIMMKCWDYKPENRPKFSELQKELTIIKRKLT
Chain of Focal adhesion kinase 1 (Homo sapiens) (Q05397 2-1052 limits assumed): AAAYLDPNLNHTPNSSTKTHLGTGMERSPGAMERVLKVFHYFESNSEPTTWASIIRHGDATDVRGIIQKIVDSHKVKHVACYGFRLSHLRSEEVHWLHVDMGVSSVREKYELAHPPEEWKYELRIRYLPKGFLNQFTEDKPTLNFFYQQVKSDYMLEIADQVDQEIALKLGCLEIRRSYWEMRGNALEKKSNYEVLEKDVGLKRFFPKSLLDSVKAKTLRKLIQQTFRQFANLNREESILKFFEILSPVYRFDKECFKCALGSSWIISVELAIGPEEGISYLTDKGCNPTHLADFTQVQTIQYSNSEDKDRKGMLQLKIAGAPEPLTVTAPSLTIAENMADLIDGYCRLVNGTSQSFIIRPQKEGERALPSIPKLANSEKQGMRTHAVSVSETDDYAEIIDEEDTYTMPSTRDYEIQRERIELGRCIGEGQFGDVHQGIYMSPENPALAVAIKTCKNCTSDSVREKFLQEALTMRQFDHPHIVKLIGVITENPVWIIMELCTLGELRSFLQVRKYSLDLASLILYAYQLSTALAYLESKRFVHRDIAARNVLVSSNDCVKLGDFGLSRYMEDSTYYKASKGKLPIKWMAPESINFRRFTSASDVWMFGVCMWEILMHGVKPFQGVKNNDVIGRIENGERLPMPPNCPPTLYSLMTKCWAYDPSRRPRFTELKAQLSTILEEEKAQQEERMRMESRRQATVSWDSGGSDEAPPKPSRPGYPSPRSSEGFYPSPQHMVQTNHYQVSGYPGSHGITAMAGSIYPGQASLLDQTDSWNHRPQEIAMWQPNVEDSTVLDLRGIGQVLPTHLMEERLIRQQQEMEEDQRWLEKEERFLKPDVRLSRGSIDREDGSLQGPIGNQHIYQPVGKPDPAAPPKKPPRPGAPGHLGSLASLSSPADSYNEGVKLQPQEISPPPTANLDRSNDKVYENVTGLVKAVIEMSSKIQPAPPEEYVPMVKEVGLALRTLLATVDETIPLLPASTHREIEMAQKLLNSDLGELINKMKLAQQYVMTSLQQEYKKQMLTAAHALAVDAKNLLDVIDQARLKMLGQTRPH
Chain of Proto-oncogene tyrosine-protein kinase receptor Ret (Homo sapiens) (P07949 whole entry): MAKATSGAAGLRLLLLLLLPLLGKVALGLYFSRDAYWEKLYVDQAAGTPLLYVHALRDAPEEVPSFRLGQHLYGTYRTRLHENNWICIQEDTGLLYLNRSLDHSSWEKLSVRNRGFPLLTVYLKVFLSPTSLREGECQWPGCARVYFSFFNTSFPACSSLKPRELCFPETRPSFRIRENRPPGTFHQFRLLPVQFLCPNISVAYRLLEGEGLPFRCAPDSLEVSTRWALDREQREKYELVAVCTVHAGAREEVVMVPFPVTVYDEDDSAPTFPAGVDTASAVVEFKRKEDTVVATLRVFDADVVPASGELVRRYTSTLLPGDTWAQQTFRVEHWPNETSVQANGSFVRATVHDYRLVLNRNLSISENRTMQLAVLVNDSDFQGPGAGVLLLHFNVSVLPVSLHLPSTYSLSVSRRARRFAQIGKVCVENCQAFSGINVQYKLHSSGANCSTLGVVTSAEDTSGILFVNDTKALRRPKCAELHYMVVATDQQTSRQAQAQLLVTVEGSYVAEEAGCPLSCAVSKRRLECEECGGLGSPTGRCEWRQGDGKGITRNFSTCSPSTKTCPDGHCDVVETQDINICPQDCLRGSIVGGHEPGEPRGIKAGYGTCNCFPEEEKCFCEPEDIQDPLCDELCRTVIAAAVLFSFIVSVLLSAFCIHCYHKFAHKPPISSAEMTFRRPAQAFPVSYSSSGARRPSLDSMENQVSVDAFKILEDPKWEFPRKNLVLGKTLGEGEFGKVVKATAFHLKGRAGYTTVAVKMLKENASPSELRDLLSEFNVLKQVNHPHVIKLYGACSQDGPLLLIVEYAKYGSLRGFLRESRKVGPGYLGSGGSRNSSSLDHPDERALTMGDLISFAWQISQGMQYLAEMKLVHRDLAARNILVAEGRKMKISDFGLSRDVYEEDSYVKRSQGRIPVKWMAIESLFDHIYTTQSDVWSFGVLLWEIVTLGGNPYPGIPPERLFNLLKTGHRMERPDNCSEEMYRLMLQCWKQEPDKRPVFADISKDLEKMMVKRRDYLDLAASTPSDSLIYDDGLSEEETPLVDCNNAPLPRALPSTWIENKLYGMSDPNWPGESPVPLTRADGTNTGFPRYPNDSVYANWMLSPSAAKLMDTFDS
Chain of Tyrosine-protein kinase ABL1 (Homo sapiens) (P00519 whole entry): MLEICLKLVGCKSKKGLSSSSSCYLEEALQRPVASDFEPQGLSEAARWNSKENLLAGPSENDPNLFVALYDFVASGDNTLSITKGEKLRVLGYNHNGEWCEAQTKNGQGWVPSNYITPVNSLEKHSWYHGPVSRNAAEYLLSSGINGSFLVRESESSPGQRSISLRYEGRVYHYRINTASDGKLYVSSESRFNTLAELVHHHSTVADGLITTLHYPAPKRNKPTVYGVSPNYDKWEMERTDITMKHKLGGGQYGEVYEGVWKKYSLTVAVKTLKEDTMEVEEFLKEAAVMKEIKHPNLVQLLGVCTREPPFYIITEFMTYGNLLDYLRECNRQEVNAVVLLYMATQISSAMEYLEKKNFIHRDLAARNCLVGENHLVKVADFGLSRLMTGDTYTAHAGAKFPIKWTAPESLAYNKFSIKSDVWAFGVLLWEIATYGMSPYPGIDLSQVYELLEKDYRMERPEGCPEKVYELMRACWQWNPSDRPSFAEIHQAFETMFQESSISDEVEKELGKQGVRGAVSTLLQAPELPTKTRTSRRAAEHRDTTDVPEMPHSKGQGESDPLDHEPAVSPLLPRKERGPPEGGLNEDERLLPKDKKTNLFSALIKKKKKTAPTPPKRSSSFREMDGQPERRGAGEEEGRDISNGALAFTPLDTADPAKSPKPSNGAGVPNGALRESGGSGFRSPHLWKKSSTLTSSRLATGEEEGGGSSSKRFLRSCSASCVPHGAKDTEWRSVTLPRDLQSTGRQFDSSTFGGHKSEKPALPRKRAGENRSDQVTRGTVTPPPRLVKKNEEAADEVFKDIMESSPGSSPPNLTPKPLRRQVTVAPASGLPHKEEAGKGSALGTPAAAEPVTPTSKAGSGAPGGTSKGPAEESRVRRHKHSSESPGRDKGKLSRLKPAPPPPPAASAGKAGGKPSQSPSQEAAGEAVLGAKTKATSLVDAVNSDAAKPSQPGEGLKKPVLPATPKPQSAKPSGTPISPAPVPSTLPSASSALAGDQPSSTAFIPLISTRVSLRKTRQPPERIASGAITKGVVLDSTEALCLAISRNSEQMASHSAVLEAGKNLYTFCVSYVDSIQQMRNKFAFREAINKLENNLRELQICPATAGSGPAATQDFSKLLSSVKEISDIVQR
Chain of Aurora kinase B (Homo sapiens) (Q96GD4 whole entry): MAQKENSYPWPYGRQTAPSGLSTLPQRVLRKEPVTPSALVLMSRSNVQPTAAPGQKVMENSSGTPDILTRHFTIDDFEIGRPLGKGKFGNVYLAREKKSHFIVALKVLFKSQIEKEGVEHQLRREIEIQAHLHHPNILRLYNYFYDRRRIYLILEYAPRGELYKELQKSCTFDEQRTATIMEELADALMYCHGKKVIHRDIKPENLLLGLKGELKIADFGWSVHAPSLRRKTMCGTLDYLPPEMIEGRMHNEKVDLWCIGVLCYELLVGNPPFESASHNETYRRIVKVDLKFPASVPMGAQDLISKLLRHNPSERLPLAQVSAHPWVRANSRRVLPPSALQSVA
Chain of Tyrosine-protein kinase Lyn (Homo sapiens) (P07948 2-512 limits assumed): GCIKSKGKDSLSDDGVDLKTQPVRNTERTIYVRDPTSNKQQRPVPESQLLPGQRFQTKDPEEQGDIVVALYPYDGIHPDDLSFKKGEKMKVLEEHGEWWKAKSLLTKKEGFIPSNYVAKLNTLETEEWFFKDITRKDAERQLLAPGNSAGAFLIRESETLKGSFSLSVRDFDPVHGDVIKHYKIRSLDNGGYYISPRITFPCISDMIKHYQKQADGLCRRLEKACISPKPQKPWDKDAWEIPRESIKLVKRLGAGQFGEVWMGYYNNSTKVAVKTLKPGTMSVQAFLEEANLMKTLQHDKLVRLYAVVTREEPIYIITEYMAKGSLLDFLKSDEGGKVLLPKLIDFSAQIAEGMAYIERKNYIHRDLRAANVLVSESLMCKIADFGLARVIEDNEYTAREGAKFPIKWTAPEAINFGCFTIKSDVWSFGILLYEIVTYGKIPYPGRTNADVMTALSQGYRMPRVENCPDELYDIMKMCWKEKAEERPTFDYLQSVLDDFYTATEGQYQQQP

| inhibition [1] [%] | inhibition [2] [%] | inhibition [3] [%] | inhibition [4] [%] | inhibition [5] [%] | inhibition [6] [%] | inhibition [7] [%] | inhibition [8] [%] | inhibition [9] [%] | inhibition [10] [%] | inhibition [12] [%] | inhibition [13] [%] | inhibition [14] [%] | inhibition [15] [%] | inhibition [16] [%] | inhibition [17] [%] | inhibition [18] [%] | inhibition [20] [%] | inhibition [21] [%] | inhibition [22] [%] | Compound | also measured |
| --- | --- | --- | --- | --- | --- | --- | --- | --- | --- | --- | --- | --- | --- | --- | --- | --- | --- | --- | --- | --- | --- |
| 17 | 8 | 11 | 40 | -5 | 1 | 41 | 3 | 6 | 11 | 10 | -2 | 13 | 9 | -10 | 7 | -7 | -4 | 1 | 3 | C[C@@H](Nc1ncnc2sc(-c3ccc(C(=O)NCCN(C)C)cc3)cc12)c1ccccc1 | inhibition [11]: 38% |
| 21 | -1 | 2 | 19 | -5 | -8 | 9 | -4 | 8 | 2 | 8 | 0 | 7 | 1 | 6 | 0 | -6 | -2 | -3 | -1 | C#Cc1cccc(Nc2ncnc3sc(-c4ccc(CO)cc4OC)cc23)c1 | inhibition [11]: 3% |
| 7 | 4 | 12 | 48 | 3 | 6 | 15 | 15 | 3 | 1 | 15 | 16 | 8 | 6 | -3 | 16 | -7 | -1 | 19 | 11 | COc1cc(CO)ccc1-c1cc2c(Nc3ccc(F)c(Cl)c3)ncnc2s1 | inhibition [11]: 14%; half-life at 3 µM [19]: 2.6 h |
| 44 | 38 | 3 |  | -4 | -9 |  |  |  |  | 8 | 64 |  |  | 25 | -3 | -4 | -1 | 75 | 5 | C#Cc1cccc(Nc2ncnc3cc(OCCOC)c(OCCOC)cc23)c1 [ERLOTINIB] | half-life at 3 µM [19]: 0.533 h |
| -2 | 6 | 7 | 63 | 0 | 2 | 62 | 15 | 10 | 0 | 3 | 7 | 3 | -1 | -4 | 3 | -4 | 5 | 6 | -3 | COc1ccc(C(=O)NCCN(C)C)cc1-c1cc2c(N[C@H](C)c3ccccc3)ncnc2s1 | half-life at 3 µM [19]: 1.93 h |
| 1 | 2 | 1 | 57 | 1 | 1 | 57 | 7 | 12 | 8 | 7 | 5 | 3 | 1 | 7 | 6 | 1 | 10 | 7 | 1 | COc1cc(CO)ccc1-c1cc2c(N[C@H](C)c3ccccc3)ncnc2s1 | inhibition [11]: 2% |
| 10 | 15 | 13 | 32 | -10 | 2 | 22 | 28 | 10 | 9 | 18 | 26 | 9 | -6 | -2 | 15 | -4 | 0 | 20 | 8 | COc1cc(CO)ccc1-c1cc2c(Nc3ccccc3)ncnc2s1 | inhibition [11]: 17% |
| 2 | 3 | 11 | -3 | -1 | -3 | 16 | 2 | -4 | 5 | 12 | -5 | 2 | 9 | -8 | 5 | -6 | -4 | -5 | 0 | C[C@@H](Nc1ncnc2sc(-c3ccccc3C(N)=O)cc12)c1ccccc1 | inhibition [11]: 26% |

| Compound | inhibition [1] [%] | inhibition [2] [%] | inhibition [3] [%] | inhibition [4] [%] | inhibition [5] [%] | inhibition [6] [%] | inhibition [7] [%] | inhibition [8] [%] | inhibition [9] [%] | inhibition [10] [%] | inhibition [12] [%] | inhibition [13] [%] | inhibition [14] [%] | inhibition [15] [%] | inhibition [16] [%] | inhibition [17] [%] | inhibition [18] [%] | inhibition [20] [%] | inhibition [21] [%] | inhibition [22] [%] | also measured |
| --- | --- | --- | --- | --- | --- | --- | --- | --- | --- | --- | --- | --- | --- | --- | --- | --- | --- | --- | --- | --- | --- |
| COc1cc(C(N)=O)ccc1-c1cc2c(N[C@H](CO)c3ccccc3)ncnc2s1 | 6 | 6 | 12 | 37 | -2 | -8 | 57 | 13 | 7 | 11 | 12 | 5 | 13 | 12 | -2 | 3 | -10 | -3 | 4 | 7 | inhibition [11]: 42%; half-life at 3 µM [19]: 5.13 h |
| COc1cc(CO)ccc1-c1cc2c(N[C@H](CO)c3ccccc3)ncnc2s1 | 10 | 3 | 1 | 50 | 1 | 1 | 56 | 20 | 12 | 8 | 5 | 9 | 1 | 7 | 9 | 1 | 4 | 8 | 22 | 13 | inhibition [11]: 14%; half-life at 3 µM [19]: 2.57 h |
